Assay results: paper PMC12221989, “One-carbon homologation of alkenes” (Nature, 2025)

Assays:
in vitro = details: human
Method: Metabolic stability assay
Hepatic microsomal stability assays were conducted by Charles River Laboratories. Assays were performed in duplicate.
The stability of the test compound (1 µM) was measured following incubation at 37 °C with […] (0.5 mg protein/mL) in the presence of the cofactor, NADPH.
Incubates were prepared in duplicate, with aliquots removed at 0, 5, 10, 20 and 40 minutes and reactions terminated, and the compound was extracted by the addition of solvent. The disappearance of the parent compound was be monitored by LC-MS/MS and the half-life determined over the time-course of incubation. The half-life value was used to calculate the in vitro intrinsic clearance expressed as µL/min/mg protein.
Table S11. Metabolic Stability Data
Half- Half- Half- Clint Clint Mean Clint
Compound Cofactor life life Life (uL/min/mg (uL/min/mg (uL/min/mg Species (min) (min) (min) protn) n=1 protn) n=2 protn) (results)

T cell proliferation = details: Fig. 1a; cited from earlier work
From the text: Fig. 1 Evolution of a strategy for one-carbon alkene homologation. a, The effect of homologues on biological activity: side chain length compared with immunosuppressive activity in a family of natural products. b, Homologation processes for common functional groups. c, Generally adopted sequence for alkene homologation. d, Design plan for a catalytic one-carbon alkene homologation process. TEXT PRINTED IN THE PICTURE: (a) R = CH3 FK-523 (FR-900523): T cell proliferation IC50 (nM): 2.72 | (a) R = CH2CH3 FK-520 (ascomycin): T cell proliferation IC50 (nM): 0.69 | (a) R = CH2CH2CH3: T cell prolife ...

Jurkat cells = experiment: IL-2 release assay, Jurkat cells stimulated with anti-CD3/anti-CD28; type: cell-based, human; details: for IL-2 levels, Mean: mean of three replicates normalized to the vehicle control
Method: Interleukin-2 (IL-2) release assays were conducted by Eurofins Pan Labs to determine ability for the analogues to inhibit IL-2 secretion from Jurkat cells following stimulation with anti-CD3 and anti-CD28 for a period of 24 hours. Data shown are means of three replicates normalized to the vehicle control
1) Cryopreserved Jurkat cells were thawed and cultured according to established protocols for four days at 37°C, 5% CO2 prior to assay.
2) Jurkat cells were harvested and seeded into 96-well plates at a density of 2x10^5 cells/well with […]
penicillin/streptomycin, and 2 mM L-glutamine).
3) Cells were incubated at 37°C, 5% CO2 for 1 hour prior to the addition of test agents.
4) The test agents were serially diluted in DMSO to 1000X assay concentrations, then further diluted to 20X assay concentrations in culture medium. The reference inhibitor Cyclosporin A (Sigma Aldrich catalog #C1832) was diluted to 1000X assay concentrations in DMSO before dilution to 20X assay concentration in culture medium.
5) The test agents, reference inhibitor, and diluted vehicle controls were added to the cells in volumes of 10 μL in triplicate and incubated for 1 hour at 37°C, 5% CO2. […]
concentrations in culture medium. The corresponding isotype controls were diluted to 5X assay concentrations in culture medium.
7) Diluted anti-CD3/anti-CD28 was added to test agent and positive control wells in volumes of 40 μL according to the plate map. Isotype controls were added to the isotype control wells.
Culture medium was added to vehicle and unstimulated control wells. […]
assay volumes of 200 μL and control concentrations of 50 ng/mL cyclosporin A (reference inhibitor), 0.1% DMSO (vehicle), 15 μg/mL anti-CD3, and 15 μg/mL anti-CD28.
8) Cells were incubated for 24 hours at 37°C, 5% CO2.
9) At the end of the incubation period, plates were centrifuged at 200g for 10 minutes. Cell culture supernatants were collected and stored at -80°C until needed for analysis.
Data Analysis and Analyte Limits of Detection
IL-2 cytokine levels in cell culture supernatants were determined using Luminex methodology per the manufacturer’s protocol using the Human Cytokine/Chemokine/Growth Factor Panel A Kit from Millipore Sigma (catalog #HCYTA-60K) with standard ranges and limits of detection in Table S9. Levels of each cytokine were interpolated from standard curves using non-linear regression analysis in Belysa Software (Millipore Sigma). The raw data in the form of median fluorescence unit was interpolated into test concentrations (pg/mL). The interpolated data were then normalized to the vehicle control
Table S9. Analyte limit of detection
Analyte Lowest standard (pg/mL) Highest standard (pg/mL) Sensitivity (pg/mL) […]
Reported mean values (pg/mL) are from three biological replicates normalized to the vehicle […]
Fig. S5. IL-2 release by Jurkat cells following stimulation with anti-CD3/anti-CD28 and treatment with the indicated test agent for 24 hours. Error bars indicate the standard error of the […]

[1] = system: calcineurin in the presence of Cyclophilin A; experiment: Calcineurin inhibition assay (phosphatase activity in the presence of Cyclophilin A); type: biochemical
Method: Calcineurin inhibition assay
Calcineurin inhibition assays were conducted by Eurofins Integrated Discovery UK Ltd (EID) to determine the effect of compounds on the activity of calcineurin in the presence of Cyclophilin A. Assays were performed in duplicate, with IC50 values calculated from mean […]
Compounds were diluted with and without immunophilin (CypA) in a 96-well plate. After addition of calcineurin/calmodulin complex, the plate was incubated at 30 °C for 10 minutes.
The addition of the RII phosphopeptide substrate initiated the reaction, and the plate was […]
The reaction was stopped by the addition of Malachite green reagent. The plate was incubated at room temperature to allow colour development (5 – 20 mins). After sufficient colour has developed, the absorbance is read at 620 nm. Blank subtracted absorbance readings are plotted against compound concentration to determine IC50 values or % inhibition at the top concentration.

Human Cyclophilin A = Human Cyclophilin A (Homo sapiens, UniProt P62937); experiment: PPIase TR-FRET competitive binding assay
Chain of Human Cyclophilin A (P62937 whole entry): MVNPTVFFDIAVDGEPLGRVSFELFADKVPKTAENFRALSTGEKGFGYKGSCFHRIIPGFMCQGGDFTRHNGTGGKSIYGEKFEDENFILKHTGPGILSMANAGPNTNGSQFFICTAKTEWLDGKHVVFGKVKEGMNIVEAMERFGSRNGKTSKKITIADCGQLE
Method: PPIase TR-FRET competitive binding assay
Cyclophilin A assays were conducted by Eurofins Integrated Discovery UK Ltd (EID) to determine the inhibitory activity of the analogues against the Human Cyclophilin A in a TR-FRET Competitive Binding assay. Assays were performed in duplicate, with Kd values calculated from mean averages. […]
binding to the CypA enzyme: the CypA enzyme, tagged with a polyhistidine sequence, forms a complex with an anti-6xHis antibody labelled with a fluorescent donor, F(d), and the enzyme […]
Compounds are diluted from DMSO stocks to 50-fold the final concentration and then in assay buffer to 2-fold the final assay plate concentration. An equal volume of compound is added to the master mix in the assay plate containing the enzyme/antibody/ligand complex, with a final concentration of detergent of 0.01%. This is incubated for 30 mins at room temperature and the plate read at 2 wavelengths (A and B) to detect emission from F(d) and F(a), respectively. The ratio B/A is calculated, blank subtracted and either expressed as a percentage of the ‘no inhibitor’ control or the blank subtracted values are plotted against the inhibitor concentration in Log10 Molar and fitted using one site Ki nonlinear regression to determine the Kd. Where possible, compound Kds are determined from duplicate data points. Each assay plate is set up with ‘no enzyme’ blanks and ‘no inhibitor’ controls, which are used to determine the Z’ value for each plate.

[2] = Reversed-phase HPLC retention as measure of lipophilicity; details: reversed-phase C18, Fig. S4-b; corroborates calculated lipophilicity
[3] = in vitro calcineurin phosphatase activity assay

Row | SMILES | Clint (uL/min/mg protn) n=1 (in vitro) | Clint (uL/min/mg protn) n=2 (in vitro) | Half-life (min) n=1 (in vitro) | Half-life (min) n=2 (in vitro) | Mean Clint (uL/min/mg protn) (in vitro) | IC50 (T cell proliferation) | Kd (Human Cyclophilin A) | also measured
1 | Cc1ncc2n1-c1ccc(Cl)cc1C(c1ccccc1F)=NC2 [Midazolam, reference compound] | 277 | 277 | 5 min | 5 min | 277 | – | – | Half-Life (min) (Mean) (in vitro): 5 min
2 | CO[C@H]1C[C@@H](C)C/C(C)=C\[C@@H](C)C(=O)C[C@H](O)[C@@H](C)[C@@H](/C(C)=C/[C@@H]2CC[C@@H](O)[C@H](OC)C2)OC(=O)[C@@H]2CCCCN2C(=O)C(=O)[C@]2(O)O[C@H]1[C@@H](OC)C[C@H]2C [FK-523] | – | – | – | – | – | 2.72 nM | – | –
3 | C/C=C/CCC[C@@H](C)[C@@H](O)[C@H]1C(=O)N[C@@H](CC)C(=O)N(C)CC(=O)N(C)[C@@H](CC(C)C)C(=O)N[C@@H](C(C)C)C(=O)N(C)[C@@H](CC(C)C)C(=O)N[C@@H](C)C(=O)N[C@H](C)C(=O)N(C)[C@@H](CC(C)C)C(=O)N(C)[C@@H](CC(C)C)C(=O)N(C)[C@@H](C(C)C)C(=O)N1C [compound 22, E-bishomo Cyclosporine-A] | 81 uL/min/mg protn | 78 uL/min/mg protn | 17 min | – | 79 uL/min/mg protn | – | 23.6 nM | suppression of IL-2 secretion (in words) (Jurkat cells; at high concentrations (≥1 µM), Jurkat T cells): effectively suppressed IL-2 secretion; IL-2 levels, Mean (Jurkat cells; test agent 0.032 µM): 7.0 pg/mL; IL-2 levels, Mean (Jurkat cells; test agent 0.10 µM): 1.9 pg/mL; IL-2 levels, Mean (Jurkat cells; test agent 0.32 µM): 1.1 pg/mL; IL-2 levels, Mean (Jurkat cells; test agent 1.0 µM): 0.9 pg/mL; IL-2 levels, Mean (Jurkat cells; test agent 3.2 µM): 0.5 pg/mL; IL-2 levels, Mean (Jurkat cells; test agent 10 µM): 0.7 pg/mL; calcineurin inhibition compared with cyclosporine A (in words) [1, 3]: retained comparable potency to cyclosporine A; IC50 ([1]; with CypA, calcineurin/calmodulin, RII phosphopeptide substrate, 30 °C 45 min, Malachite green A620, duplicate, IC50 from mean averages): 158 nM; increase of HPLC retention time upon each homologation event [2]: ~ 2.5 minutes
4 | CCCC1C=C(C)CC(C)CC(OC)C2OC(O)(C(=O)C(=O)N3CCCCC3C(=O)OC(C(C)=CC3CCC(O)C(OC)C3)C(C)C(O)CC1=O)C(C)CC2OC (stereo not shown) [R = CH2CH2CH3] | – | – | – | – | – | 0.93 nM | – | –
5 | [2H]C([2H])([2H])/C=C/CC[C@@H](C)[C@@H](O)[C@H]1C(=O)N[C@@H](CC)C(=O)N(C)CC(=O)N(C)[C@@H](CC(C)C)C(=O)N[C@@H](C(C)C)C(=O)N(C)[C@@H](CC(C)C)C(=O)N[C@@H](C)C(=O)N[C@H](C)C(=O)N(C)[C@@H](CC(C)C)C(=O)N(C)[C@@H](CC(C)C)C(=O)N(C)[C@@H](C(C)C)C(=O)N1C [compound 23] | 44 uL/min/mg protn | 45 uL/min/mg protn | 32 min | 31 min | 44 uL/min/mg protn | – | 45.9 nM | half-life at 1 µM (in vitro; both, liver microsomes): 31 min
6 | C=CCCC[C@@H](C)[C@@H](O)[C@H]1C(=O)N[C@@H](CC)C(=O)N(C)CC(=O)N(C)[C@@H](CC(C)C)C(=O)N[C@@H](C(C)C)C(=O)N(C)[C@@H](CC(C)C)C(=O)N[C@@H](C)C(=O)N[C@H](C)C(=O)N(C)[C@@H](CC(C)C)C(=O)N(C)[C@@H](CC(C)C)C(=O)N(C)[C@@H](C(C)C)C(=O)N1C [compound 26, homoisocyclosporine A] | 69 uL/min/mg protn | 65 uL/min/mg protn | – | – | 67 uL/min/mg protn | – | 10.2 nM | calcineurin inhibition compared with cyclosporine A (in words) [1, 3]: restored calcineurin inhibition to levels comparable with those of cyclosporine A
7 | CC[C@@H]1/C=C(\C)C[C@H](C)C[C@H](OC)[C@H]2O[C@@](O)(C(=O)C(=O)N3CCCC[C@H]3C(=O)O[C@H](/C(C)=C/[C@@H]3CC[C@@H](O)[C@H](OC)C3)[C@H](C)[C@@H](O)CC1=O)[C@H](C)C[C@@H]2OC [FK-520, ascomycin] | – | – | – | – | – | 0.69 nM | – | –
8 | C=CC[C@@H]1/C=C(\C)C[C@H](C)C[C@H](OC)[C@H]2O[C@@](O)(C(=O)C(=O)N3CCCC[C@H]3C(=O)O[C@H](/C(C)=C/[C@@H]3CC[C@@H](O)[C@H](OC)C3)[C@H](C)[C@@H](O)CC1=O)[C@H](C)C[C@@H]2OC [Tacrolimus, tacrolimus] | – | – | – | – | – | 0.18 nM | – | –
9 | COc1ccc2c(c1)[C@]13CCCC[C@@H]1[C@H](C2)N(C)CC3 [Dextromethorphan, reference compound] | 29 | 29 | 49 min | 47 min | 29 | – | – | Half-Life (min) (Mean) (in vitro): 48 min
10 | CC[C@@H]1NC(=O)[C@H]([C@H](O)[C@H](C)CC/C=C\F)N(C)C(=O)[C@H](C(C)C)N(C)C(=O)[C@H](CC(C)C)N(C)C(=O)[C@H](CC(C)C)N(C)C(=O)[C@@H](C)NC(=O)[C@H](C)NC(=O)[C@H](CC(C)C)N(C)C(=O)[C@H](C(C)C)NC(=O)[C@H](CC(C)C)N(C)C(=O)CN(C)C1=O [compound 24] | 48 uL/min/mg protn | 53 uL/min/mg protn | 29 min | 26 min | 51 uL/min/mg protn | – | – | decrease in phosphatase activity compared with cyclosporine A [1, 3]: 10 fold
